Here are results for 17 compounds from patent publication US20240174631A1, “COMPOUNDS, COMPOSITIONS, AND METHODS FOR MODULATING FGF ACTIVITY” (Recovery Therapeutics, Inc., priority 2021, published 2024).

For one assay, the target named is T1, FGF2 (Homo sapiens, UniProt P09038).
T1 construct: made in house; host or cells: Escherichia coli BL21 (DE3) Star
The experiment in a line: Thermal shift assay (TSA) of FGFR1/FGF2 complex, FGF2 melting peak. The settings on record: for ΔTm at 25 µM: 25 μM compound; for ΔTm at 2 µM: 2 μM compound; for ΔTm at 100 µM: 100 μM compound; for ΔTm at 10 µM: 10 μM compound. It is filed as binding. The source says:
(§1) TSA was utilized to biophysically characterize the recombinant human FGFR1/FGF2 complex in the presence or absence of compounds. The assay functions by protein denaturation over a temperature gradient. During protein unfolding, exposed hydrophobic regions bind a dye and fluoresce due to solvent relaxation effects. Changes in the melting temperature of the protein complex in the presence of each compound were monitored and compounds were screened/ranked using this method.
One Shot BL21 (DE3) Star Escherichia coli competent cells (Thermo Fisher) were transformed with a relevant FGF2 plasmid and inoculated onto Ampicillin Luria Broth/Agar plates. Two hundred milliliter portions of Terrific Broth starter cultures were used to inoculate 9 L cultures with ampicillin at a concentration of 100 μg/mL. Cultures were grown to an O.D.600 near 1.0 at 37° C., and induced with IPTG overnight at 18° C. The cells were harvested at 7000 RPM in rotor 6000 for 5 min at 4° C. and stored at −80° C. Bacterial pellets were resuspended in 25 mM Hepes-NaOH, pH 7.5, 250 mM NaCl, and the cells were lysed in 3 cycles on/off for 3 minutes each at 4° C. via sonication. After centrifugation for 30 minutes at 16,000 RPM at 4° C., the isolated pellets were discarded, and the supernatant was filtered supernatant through a […] PES filter using 100 mL superloop. The lysate was purified over a 5 mL S column by washing the column with Lysis buffer for 5 CV then eluting using gradient from 250 mM to 1 M NaCl over 20 CV. The fractions containing FGF2 were identified via SDS-PAGE gel (Expected Mw: 15.2 KDa). The protein was collected and diluted in 20 mM Tris-HCl pH 8.0, 25 mM MgCl2 buffer in order to reach a NaCl concentration of 150 mM. The purified FGF2 was concentrated and stored at −80° C.
(§2) Thawed aliquots of purified FGF2 (1.0 mg/mL) and FGFR1 (1.6 mg/mL) proteins were mixed in a 1:1 molar ratio (64 μM: 64 μM) on ice for 30 min at 4° C. and plated prior to the thermal shift assay (TSA). Complex formation was verified by loading the complexed material on a size exclusion column (superdex 300GL S200) and observing the monodisperse peak corresponding to the FGF2/FGFR1 complex (˜40 kDa). Compounds of the invention were screened in dose response format (0-100 μM) with the FGF2/FGFR1 complex in triplicates. FGF2/FGFR1/compound complexes were mixed in a 1000:1 ratio with Sypro Orange dye (Sigma-Aldrich). The samples were processed using a Bio-Rad CFX C96 Touch quantitative polymerase chain reaction and run using the FRET assay settings with a heating ramp of 0.3° C./s cycling from 4 to 100° C. Data analysis was performed using the Bio-Rad CFX Manager Software (version 3.1, Bio-Rad) and changes in the melting temperature (Tm) of the complex in the presence of each compound were monitored. The results are shown in Tables 2 and 3 below and also in FIG. 1 (for Compound 2).

A further assay has as its target FGFR1 (Homo sapiens, UniProt P11362). The experiment in a line: Thermal shift assay (TSA) of FGFR1/FGF2 complex, FGFR1 melting peak. The assay is classed as binding. The arrangement: made in house; host or cells: Escherichia coli BL21 (DE3) Star. To be noted: FGF2/FGFR1 complex; for ΔTm at 25 µM: 25 μM compound; for ΔTm at 2 µM: 2 μM compound; for ΔTm at 100 µM: 100 μM compound; for ΔTm at 10 µM: 10 μM compound.
Source text: as §1
Cell pellets were thawed and resuspend in 100 mL of FGFR1 Lysis Buffer per 9 g of pellet (20 mM Tris-HCl pH 8.0, 500 mM NaCl, 1 mM dithiothreitol) by stirring at 4° C. for 1 hour. Cells were lysed in 3 cycles on/off for 3 minutes each at 4° C. via sonication followed by centrifugation for 30 minutes at 16,000 RPM in rotor F20 at 4° C., after which the supernatant was discarded. This process was then repeated twice. The pellets were resuspended in 150 mL FGFR1 solubilization buffer (8 M urea, 20 mM Tris-HCL pH 8.0, 150 mM NaCl, 1 mM dithiothreitol) by stirring for 1 hour at 4° C., and the solution was subjected to centrifugation for 30 minutes at 16,000 RPM in rotor F20 at 4° C. The pellets were discarded, and the supernatant was filtered through a […] polyethersylfone (PES) filter. After filtration, the supernatant was added dropwise to 1 L FGFR1 refolding buffer (20 mM Tris-HCl pH 8.0, 150 mM NaCl, 0.5 M L-arginine, 25 mM MgCl2) using a glass column. Protein was concentrated by tangential flow from 1 L to 100 mL and dialyzed against 1 L of FGFR1 Dialysis Buffer (20 mM Tris-HCl pH 8.0, 150 mM NaCl, 25 mM MgCl2) for 2 hours at 4° C., and the dialysis step was repeated with fresh buffer for an additional 2 hours at 4° C. The material thus obtained was then centrifuged at 4000 RPM in Eppendorf tabletop centrifuge for 5 minutes and loaded onto 2×5 mL heparin columns. The columns were washed extensively (20 CV) using FGFR1 Heparin Buffer A (20 mM Tris-HCl pH 8.0, 150 mM NaCl, 25 mM MgCl2) and then eluted using FGFR1 Heparin Buffer B (20 mM Tris-HCl pH 8.0, 1.5 M NaCl, 25 mM MgCl2). A large peak was recovered that was >95% pure by SDS-PAGE analysis gel (Expected Mw: 25 KDa). The protein was collected and diluted in 20 mM Tris-HCl pH 8.0, 25 mM MgCl2 buffer in order to reach a NaCl concentration of 150 mM. The FGFR1 thus obtained was concentrated and stored at −80° C.
as §2

T1 sequence (P09038 156-288 limits assumed): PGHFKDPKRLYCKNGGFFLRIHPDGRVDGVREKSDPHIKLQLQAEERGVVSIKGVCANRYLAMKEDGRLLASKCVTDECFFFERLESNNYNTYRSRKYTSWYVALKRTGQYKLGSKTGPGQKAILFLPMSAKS
T1 sequence (P11362 142-365 partner limits assumed): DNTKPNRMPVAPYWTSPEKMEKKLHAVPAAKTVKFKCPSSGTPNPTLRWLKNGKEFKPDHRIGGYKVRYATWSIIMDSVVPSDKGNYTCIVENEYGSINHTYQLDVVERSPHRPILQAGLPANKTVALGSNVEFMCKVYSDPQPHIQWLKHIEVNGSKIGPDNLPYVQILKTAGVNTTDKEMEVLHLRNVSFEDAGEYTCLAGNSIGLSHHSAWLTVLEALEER
FGFR1, sequence (P11362 142-365 limits assumed): as the sequence (P11362 142-365 partner limits assumed) above
FGFR1, sequence (P09038 156-288 partner limits assumed): as the sequence (P09038 156-288 limits assumed) above

In the case of `c1ccc(C(c2ccccc2)N2CCC(N3CCc4cccnc4C3)CC2)cc1` [Compound 14, 7-(1-benzhydrylpiperidin-4-yl)-5,6,7,8-tetrahydro-1,7-naphthyridine], the ΔTm (usually the shift of the melting midpoint relative to a reference) at 25 µM on FGF2 was -3.3 °C; at FGFR1, 5.4 °C.

`Fc1cccc2c1CCN(C1CN(C(c3ccccc3)c3ccccc3)C1)C2` [Compound 38, 2-(1-benzhydrylazetidin-3-yl)-5-fluoro-1,2,3,4-tetrahydroisoquinoline]: the ΔTm at 2 µM is -2.7 °C at FGF2 and 9.8 °C at FGFR1.

Take `Fc1ccc(CN2CCC(N3CCc4cc(Br)ccc4C3)CC2)cc1` [Compound 81, 6-bromo-2-(1-(4-fluorobenzyl)piperidin-4-yl)-1,2,3,4-tetrahydroisoquinoline]: the ΔTm at 100 µM on FGF2 turned out to be 0 °C; at FGFR1, 0.3 °C.

Regarding `c1ccc(C(c2ccccc2)N2CCC(N3CCc4cnccc4C3)CC2)cc1` [Compound 19, 2-(1-benzhydrylpiperidin-4-yl)-1,2,3,4-tetrahydro-2,6-naphthyridine], the ΔTm at 25 µM is -3 °C at FGF2 and 2.8 °C at FGFR1.

Regarding `N#Cc1ccc2c(c1)CCN(C1CCN(C(c3ccccc3)c3ccccc3)CC1)C2` [Compound 3, 2-(1-benzhydrylpiperidin-4-yl)-1,2,3,4-tetrahydroisoquinoline-6-carbonitrile], the ΔTm at 25 µM at FGF2 was 3.7 °C; on FGFR1 it was 0 °C.

Turning to `Clc1ccc2c(c1)CCN(C1CCN(C(c3ccccc3)c3ccccc3)CC1)C2` [Compound 5, 2-(1-benzhydrylpiperidin-4-yl)-6-chloro-1,2,3,4-tetrahydroisoquinoline], the ΔTm at 25 µM at FGF2 is -1.7 °C; on FGFR1 it was 1.2 °C.

`Brc1ccc2c(c1)CCN(C1CCN(C(c3ccccc3)c3ccccc3)CC1)C2` [Compound 1, 2-(1-benzhydrylpiperidin-4-yl)-6-bromo-1,2,3,4-tetrahydroisoquinoline]: at FGF2, the ΔTm at 10 µM is -1.5 °C and the ΔTm at 100 µM was -1.8 °C. Besides, on FGFR1, the ΔTm at 10 µM turned out to be 2 °C and the ΔTm at 100 µM worked out at 3 °C.

As for `Fc1ccc2c(c1)CN(C1CCN(C(c3ccccc3)c3ccccc3)CC1)CC2` [Compound 8, 2-(1-benzhydrylpiperidin-4-yl)-7-fluoro-1,2,3,4-tetrahydroisoquinoline], the ΔTm at 10 µM at FGF2 is -0.5 °C; at FGFR1, 3.3 °C.

With `Fc1cccc2c1CN(C1CCN(C(c3ccccc3)c3ccccc3)CC1)CC2` [Compound 9, 2-(1-benzhydrylpiperidin-4-yl)-8-fluoro-1,2,3,4-tetrahydroisoquinoline], the ΔTm at 100 µM at FGF2 and at FGFR1 was 0 °C in each case.

For the compound `CCN(CC)c1ccc2c(c1)CCN(C1CCN(Cc3ccc(F)cc3)CC1)C2` [Compound 85, N,N-diethyl-2-(1-(4-fluorobenzyl)piperidin-4-yl)-1,2,3,4-tetrahydroisoquinolin-6-amine], the ΔTm at 2 µM worked out at 0 °C at FGF2 and 14 °C on FGFR1.

`c1ccc(C(c2ccccc2)N2CCC(N3CCc4ccncc4C3)CC2)cc1` [Compound 4, 2-(1-benzhydrylpiperidin-4-yl)-1,2,3,4-tetrahydro-2,7-naphthyridine]: the ΔTm at 2 µM at FGF2 is -2.2 °C; at FGFR1, 14.5 °C.

For `CCN(CC)c1ccc2c(c1)CCN(C1CN(C(c3ccccc3)c3ccccc3)C1)C2` [Compound 56, 2-(1-benzhydrylazetidin-3-yl)-N,N-diethyl-1,2,3,4-tetrahydroisoquinolin-6-amine], the ΔTm at 100 µM at FGF2 is 0 °C; on FGFR1, -0.5 °C.

As for `Fc1ccc2c(c1)CCN(C1CCN(C(c3ccccc3)c3ccccc3)CC1)C2` [Compound 6, 2-(1-benzhydrylpiperidin-4-yl)-6-fluoro-1,2,3,4-tetrahydroisoquinoline], the ΔTm at 25 µM at FGF2 was 0 °C; on FGFR1 it was 1.5 °C.

As for `c1ccc(C(c2ccccc2)N2CCC(N3CCc4ncccc4C3)CC2)cc1` [Compound 17, 6-(1-benzhydrylpiperidin-4-yl)-5,6,7,8-tetrahydro-1,6-naphthyridine], the ΔTm at 10 µM at FGF2 is -2.7 °C; on FGFR1, 3 °C.

With `FC1(F)CN(C2CCN(C(c3ccccc3)c3ccccc3)CC2)Cc2ccccc21` [Compound 21, 2-(1-benzhydrylpiperidin-4-yl)-4,4-difluoro-1,2,3,4-tetrahydroisoquinoline], the figures for the ΔTm at 2 µM at FGF2 and at FGFR1 were -3.6 °C and 11.6 °C, respectively.

In the case of `Fc1cccc2c1CCN(C1CCN(C(c3ccccc3)c3ccccc3)CC1)C2` [Compound 7, 2-(1-benzhydrylpiperidin-4-yl)-5-fluoro-1,2,3,4-tetrahydroisoquinoline], the ΔTm at 10 µM on FGF2 was -0.2 °C; on FGFR1, 10.7 °C.

Consider `Brc1ccc2c(c1)CCN(C1CN(C(c3ccccc3)c3ccccc3)C1)C2` [Compound 43, 2-(1-benzhydrylazetidin-3-yl)-6-bromo-1,2,3,4-tetrahydroisoquinoline], for which the ΔTm at 100 µM on FGF2 was -4.5 °C; at FGFR1 it was 6.6 °C.
